Experimental data: PMC7226045, “Ensartinib (X-396) Effectively Modulates Pharmacokinetic Resistance Mediated by ABCB1 and ABCG2 Drug Efflux Transporters and CYP3A4 Biotransformation Enzyme” (Cancers, 2020)

Legend:
[1] = test system: A431-parent cells; assay: MTT proliferation assay, A431-parent; assay type: cell-based; details: Homo sapiens, 48 h, read-out: IC50, sensitivity to ensartinib
Procedure: (§1) MTT proliferation assay was performed as described previously.

[2] = target: CYP3A4 (Homo sapiens, UniProt P08684); assay: Vivid CYP screening kit, recombinant CYP3A4; assay type: biochemical; parameters: purchased Thermo Fisher Scientific; host or cells: insect microsomal fractions; details: recombinant enzyme, 15 min incubation, absolute IC50; read-out: CYP3A4 inhibition IC50
CYP3A4, sequence (P08684 2-503 limits assumed): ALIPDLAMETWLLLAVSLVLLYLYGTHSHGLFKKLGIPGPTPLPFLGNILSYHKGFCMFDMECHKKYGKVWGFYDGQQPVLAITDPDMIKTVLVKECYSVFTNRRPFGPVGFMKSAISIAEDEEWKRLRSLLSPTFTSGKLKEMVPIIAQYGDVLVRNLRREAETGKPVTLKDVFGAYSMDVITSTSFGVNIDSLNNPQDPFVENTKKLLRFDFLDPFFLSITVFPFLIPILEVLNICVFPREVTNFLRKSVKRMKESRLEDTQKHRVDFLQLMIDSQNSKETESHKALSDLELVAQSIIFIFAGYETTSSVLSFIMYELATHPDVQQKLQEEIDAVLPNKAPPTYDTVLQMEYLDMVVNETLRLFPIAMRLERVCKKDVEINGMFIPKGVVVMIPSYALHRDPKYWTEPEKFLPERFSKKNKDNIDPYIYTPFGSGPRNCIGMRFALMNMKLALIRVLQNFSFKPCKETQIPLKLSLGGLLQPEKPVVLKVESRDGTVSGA
Procedure: (§2) CYP inhibitory assay was performed as described previously. Experiments were performed with commercial Vivid CYP screening kits containing insect microsomal fractions enriched with a specific human CYP isoform, human CYP reductase, and in some cases, human cytochrome b5. The potential inhibitory activity of ensartinib toward CYP1A2, CYP2B6, CYP2C8, CYP2C9, CYP2C19, CYP2D6, CYP3A4, and CYP3A5 (i.e., all CYP isoforms that drug regulatory authorities recommend for testing of inhibition by new molecular entities) was then examined. Experiments were performed using a kinetic mode in black 96-well plates according to the manufacturer´s instructions. Briefly, 5-point serial dilutions of ensartinib or the model inhibitor recommended by the manufacturer in buffer were transferred into the wells, then a master mix consisting of a CYP isoenzyme with an NADPH regeneration system in buffer was added. After a 10 min pre-incubation, the reaction was initiated by adding a mixture of NADP^+ and the appropriate Vivid substrate, after which fluorescence was measured at 1 min intervals for 60 min using an Infinite M200 Pro microplate reader (Tecan, Männedorf, Switzerland). The enzyme concentration and incubation interval used for data evaluation (15 min) placed the systems within the linear regions of the appropriate reaction velocity curves. […]

[3] = target: T1, CYP2C8 (Homo sapiens, UniProt P10632); assay: Vivid CYP screening kit, recombinant CYP2C8; assay type: biochemical; details: recombinant enzyme, 15 min incubation, absolute IC50; read-out: CYP2C8 inhibition IC50
T1 construct: purchased Thermo Fisher Scientific; host or cells: insect microsomal fractions
T1 sequence (P10632 whole entry): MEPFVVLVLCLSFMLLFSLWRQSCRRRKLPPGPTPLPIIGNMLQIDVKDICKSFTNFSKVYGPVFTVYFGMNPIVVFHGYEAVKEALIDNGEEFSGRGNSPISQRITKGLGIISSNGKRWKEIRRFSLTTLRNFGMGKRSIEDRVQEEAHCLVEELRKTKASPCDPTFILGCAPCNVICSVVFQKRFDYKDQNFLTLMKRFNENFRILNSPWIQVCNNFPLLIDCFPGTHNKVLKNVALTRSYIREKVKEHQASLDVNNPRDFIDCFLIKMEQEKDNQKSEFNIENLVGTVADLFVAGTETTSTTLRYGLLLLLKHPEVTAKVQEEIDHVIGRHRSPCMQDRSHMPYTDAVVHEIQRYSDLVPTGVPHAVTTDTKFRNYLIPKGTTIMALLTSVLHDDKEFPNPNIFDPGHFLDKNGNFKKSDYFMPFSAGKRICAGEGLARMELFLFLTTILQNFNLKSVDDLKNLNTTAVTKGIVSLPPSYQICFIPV
Procedure: as §2

[4] = MTT proliferation assay, A431-ABCG2; assay type: cell-based; details: human, A431-ABCG2 cells, read-out: IC50, sensitivity to ensartinib
Procedure: as §1

[5] = test system: MDCKII-parent cells; assay: MTT proliferation / drug combination assay, MDCKII-parent; assay type: cell-based, canine
Procedure: as §1

[6] = target: T2, ABCC1 (Homo sapiens, UniProt P33527); assay: daunorubicin accumulation assay (flow cytometry) in MDCKII-ABCC1 cells; assay type: cell-based; details: 2 µM daunorubicin, 1 h, read-out: IC50, inhibition of daunorubicin efflux by ABCC1
T2 construct: expressed in transfected cells; host or cells: MDCKII-ABCC1 (from Dr. Alfred Schinkel, The Netherlands Cancer Institute)
T2 sequence (P33527 whole entry): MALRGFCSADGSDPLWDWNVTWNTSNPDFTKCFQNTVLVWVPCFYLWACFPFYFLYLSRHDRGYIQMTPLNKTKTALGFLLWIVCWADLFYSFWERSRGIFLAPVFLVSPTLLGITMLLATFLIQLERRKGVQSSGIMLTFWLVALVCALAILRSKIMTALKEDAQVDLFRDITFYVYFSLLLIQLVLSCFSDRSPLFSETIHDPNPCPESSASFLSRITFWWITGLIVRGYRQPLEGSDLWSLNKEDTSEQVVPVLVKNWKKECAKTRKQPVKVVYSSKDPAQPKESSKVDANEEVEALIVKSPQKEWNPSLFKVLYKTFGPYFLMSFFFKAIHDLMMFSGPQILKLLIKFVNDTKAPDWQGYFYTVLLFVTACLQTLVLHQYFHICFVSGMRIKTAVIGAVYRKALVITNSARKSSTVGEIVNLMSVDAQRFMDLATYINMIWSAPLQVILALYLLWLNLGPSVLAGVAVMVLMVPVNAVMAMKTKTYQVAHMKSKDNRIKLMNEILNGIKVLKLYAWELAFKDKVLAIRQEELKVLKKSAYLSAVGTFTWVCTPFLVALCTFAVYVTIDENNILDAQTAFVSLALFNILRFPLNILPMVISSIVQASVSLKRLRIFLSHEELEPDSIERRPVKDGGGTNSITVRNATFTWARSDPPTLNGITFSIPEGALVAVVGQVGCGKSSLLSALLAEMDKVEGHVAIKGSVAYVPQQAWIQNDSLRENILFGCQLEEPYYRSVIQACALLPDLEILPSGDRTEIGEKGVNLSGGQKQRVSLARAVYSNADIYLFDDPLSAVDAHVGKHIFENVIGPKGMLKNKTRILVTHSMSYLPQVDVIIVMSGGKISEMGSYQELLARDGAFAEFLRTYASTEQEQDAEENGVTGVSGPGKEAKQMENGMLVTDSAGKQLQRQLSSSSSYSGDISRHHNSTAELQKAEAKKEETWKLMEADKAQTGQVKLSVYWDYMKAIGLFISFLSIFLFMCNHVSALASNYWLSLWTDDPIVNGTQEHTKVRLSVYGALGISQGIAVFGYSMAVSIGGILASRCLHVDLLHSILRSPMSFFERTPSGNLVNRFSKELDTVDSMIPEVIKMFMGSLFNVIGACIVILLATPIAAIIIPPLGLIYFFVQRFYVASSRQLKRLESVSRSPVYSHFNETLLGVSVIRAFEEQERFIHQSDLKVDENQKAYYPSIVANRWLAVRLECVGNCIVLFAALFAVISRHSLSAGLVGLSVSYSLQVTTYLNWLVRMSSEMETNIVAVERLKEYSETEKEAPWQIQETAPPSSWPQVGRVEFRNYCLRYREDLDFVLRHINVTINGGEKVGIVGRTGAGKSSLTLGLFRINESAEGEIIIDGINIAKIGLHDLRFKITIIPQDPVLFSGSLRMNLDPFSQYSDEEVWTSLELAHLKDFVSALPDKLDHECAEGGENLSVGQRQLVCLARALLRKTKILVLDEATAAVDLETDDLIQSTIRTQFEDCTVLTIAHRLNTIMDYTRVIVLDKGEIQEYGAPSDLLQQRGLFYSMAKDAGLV
Procedure: The flow-cytometric inhibitory assay with daunorubicin and mitoxantrone was performed with minor modifications as described previously. MDCKII-par, MDCKII-ABCB1, MDCKII-ABCG2, and MDCKII-ABCC1 cell lines were seeded at densities of 22.0 × 10^4, 15.0 × 10^4, 25.0 × 10^4, and 22.0 × 10^4 cells/well, respectively, on a 12-well plate and then incubated for 24 h to reach approximately 70–80% confluence. Further steps including cell washing, the preparation of drug/model inhibitor dilutions, and their addition to cells were performed as described above. After the 10 min pre-incubation period, 2 µM daunorubicin (a substrate of ABCB1/ABCC1) or 1 µM mitoxantrone (ABCG2 substrate) were promptly added to all wells other than those containing background samples, then the plate was incubated for 1 h under standard conditions. The plates were subsequently placed on ice, the cells were washed twice with ice-cold 1× PBS, and 10× trypsin without phenol red was added. After complete trypsinization, the cells were vigorously resuspended in ice-cold 1× PBS containing 2% FBS. Samples were then transferred into test-tubes and kept on ice until their fluorescence could be measured using a flow cytometer (BD FACSCanto II, Allschwil, Switzerland). The excitation/emission wavelengths for daunorubicin and mitoxantrone were 490/565 and 640/670 nm, respectively.

[7] = test system: ABCB1, ABCG2, ABCC1 mRNA; assay: Gene induction study (qRT-PCR), ABC transporter mRNA; assay type: cell-based, human; details: 0.5 µM ensartinib; 24 and 48 h; Caco-2, LS174T, A549, NCI-H1299 cells
Procedure: Gene induction studies were performed with minor modifications as described recently. Although all gene induction studies involved the use of quantitative real-time reverse transcription PCR (qRT-PCR) to measure mRNA levels, the methods used for specific cell lines varied considerably. Therefore, they are described separately.
For transporter-oriented studies, A549 (24 × 10^4 cells/well), NCI-H1299 (18 × 10^4 cells/well), Caco-2 (50 × 10^4 cells/well), or LS174T (100 × 10^4 cells/well) cells were plated in 12-well plates 24 h before the experiment. Subsequently, the medium was replaced with fresh medium containing 0.5 µM ensartinib, 25 µM rifampicin, or 0.1% DMSO (vehicle control). […] The RNA yield was measured using a NanoDrop ND-1000 spectrophotometer (American Laboratory Trading, East Lyme, CT, USA) while RNA quality and integrity were verified by agarose gel electrophoresis. […] The expression of ABCB1, ABCG2 and ABCC1 was assessed using gb Easy PCR Master Mix and TaqMan qRT-PCR systems in 384-well plates according to the manufacturer´s instructions, amplifying 20 ng of cDNA per reaction. qRT-PCR was performed using QuantStudio 6 (Life Technologies, Carlsbad, CA, USA) with predefined thermal cycling conditions (95 °C for 3 min then 40 repeats of a cycle of 95 °C for 10 s and 60 °C for 20 s). […]

[8] = target: T3, CYP2C9 (Homo sapiens, UniProt P11712); assay: Vivid CYP screening kit, recombinant CYP2C9; assay type: biochemical; details: recombinant enzyme, 15 min incubation, absolute IC50; read-out: CYP2C9 inhibition IC50
T3 construct: purchased Thermo Fisher Scientific; host or cells: insect microsomal fractions
T3 sequence (P11712 whole entry): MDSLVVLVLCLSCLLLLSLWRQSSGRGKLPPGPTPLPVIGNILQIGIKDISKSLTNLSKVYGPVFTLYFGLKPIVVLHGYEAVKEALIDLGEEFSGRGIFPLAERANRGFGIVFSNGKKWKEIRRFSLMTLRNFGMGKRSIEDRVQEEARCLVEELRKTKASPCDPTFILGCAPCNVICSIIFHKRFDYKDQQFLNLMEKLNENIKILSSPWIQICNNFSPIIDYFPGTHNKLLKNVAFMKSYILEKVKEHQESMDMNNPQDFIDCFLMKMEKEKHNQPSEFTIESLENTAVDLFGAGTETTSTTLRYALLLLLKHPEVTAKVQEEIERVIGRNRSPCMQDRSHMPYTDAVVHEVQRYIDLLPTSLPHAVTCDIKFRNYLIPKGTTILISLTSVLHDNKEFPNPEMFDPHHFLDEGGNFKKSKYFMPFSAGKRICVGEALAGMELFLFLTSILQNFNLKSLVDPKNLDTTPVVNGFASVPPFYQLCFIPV
Procedure: as §2

[9] = test system: HepG2-CYP3A4 cells; assay: Docetaxel combination assay (MTT), HepG2-CYP3A4; assay type: cell-based, human; details: 1 µM docetaxel
Procedure: as §1
Cell viability was measured after a 48 h incubation using the MTT method as described above. […] Sensitization effects of < 0%, 0%, and >0% indicate antagonism, additivity, and synergism, respectively.

C[C@@H]1CN(C(=O)c2ccc(NC(=O)c3cc(O[C@H](C)c4c(Cl)ccc(F)c4Cl)c(N)nn3)cc2)C[C@H](C)N1 [ensartinib, Ensartinib]
IC50 [1]: 2.69 µM
IC50 [2]: 1.12 µM
IC50 [3]: 20.6 µM
IC50 at 48 h [4]: 2.26 µM
IC50 ([5]; Canis lupus familiaris, MDCKII-parent, 48 h, MTT, read-out: IC50, sensitivity to ensartinib): 21.8 µM
combination effect (Chou-Talalay combination index) ([5]; MDCKII parental, 10 µM ensartinib with daunorubicin or mitoxantrone, whole FA range): antagonistic or additive
IC50 [6]: > 50 µM
change in mRNA levels of ABCB1, ABCG2, ABCC1 [7]: did not increase or reduce the mRNA levels of ABCB1, ABCG2, or ABCC1 by more than 100% or 50%
IC50 [8]: 4.93 µM
docetaxel sensitization in CYP3A4-overexpressing cells ([9]; 25 µM ensartinib (but not 15 µM), 48 h MTT): comparable to that induced by ketoconazole
sensitization effect of combination with docetaxel ([9]; HepG2-CYP3A4, <0% antagonism, =0% additivity, >0% synergism): synergistic
